Series [1] can be described thus: Dose–response curve of purified […]s with S-β-phenylalanine. In kind it is biochemical. The protocol: (§1) Fig. 4 Engineering ligand specificity of GrsA-PheA for generating […]s. a The selectivity-conferring code of Phe and Leu A domains. b–f Dose–response curve of purified […]s with increasing concentrations of ligands in 100 mM Tris-HCl buffer (pH=7.5). All data shown are means ± S.D. (n = 3 biologically independent samples). g A series of […] reactions was tested to show the […]’s specificity with 20 proteinogenic amino acids. The values on the heatmap represent the ΔF/F0 value normalized to each […]’s maximal ΔF/F0 value ((ΔF/F0)/maximal ΔF/F0). The concentrations of 20 amino acids were 100 μM. The color indicates the average value of three independent biological replicates after 15 min. All data shown are means ± S.D. (n = 3 biologically independent samples). Source data are provided as a Source data file.
(§2) The study conducted dose–response curve, substrate specificity, and fluorescent spectrum analyses in 100-mM Tris buffer (pH = 7.5), while pH stability experiments were performed in 100-mM Tris buffer at three different pH values (6.5, 7.5, and 8.5) at room temperature. […] protein at a concentration of 0.75 μM, various small molecule concentrations, 1 mM ATP, and 2.5 mM MgCl2 were used in the experiments. Fluorescent signals were detected using a Microplate Reader (Synergy H4, Bio Tek) at an excitation/emission wavelength of 460 nm/510 nm or 480 nm/510 nm. The dose-response curve was determined immediately after the addition of the analyte. The total duration of the measurement was 15 min, with readings taken at one-minute intervals. The dose-response curve was plotted using the fluorescence values obtained after achieving stability in the fluorescence signal. The dose-response curves were fitted using the logistic model LOGISTIC5 available in Origin 2021, which could provide a more adequate fit to asymmetric dose-response data[62],[63]. Excitation spectra were scanned from 300 to 540 nm with a step size of 5 nm, and the emission wavelength was set to 560 nm. Emission spectra were scanned from 470 to 700 nm with a step size of 5 nm, and the excitation wavelength was set to 450 nm. The thermal stability of […] was analyzed using the UNcle multifunctional protein stability analysis system. Measurements were performed in 20 mM MOPS buffer with 2 mM DTT at a sample concentration of 1 mg/mL. Absolute fluorescence quantum yields were measured using an absolute photoluminescence quantum yield spectrometer (FS5, Edinburgh).

A short description of series [2]: Substrate (ligand) specificity of […]s. It is filed as biochemical. Particulars: for fluorescence response of GECFINDER to each substrate, AVE of 3 repeats: Supplementary Fig. 3 c, substrate specificity. The protocol: as §1
Ligand specificity is an important biosensors feature. Generally, the NRPS A domains have high specificity for their substrates because they are the first “gatekeeper” of NRPSs and ensure that the correct monomers are activated and thioesterified[32],[33]. Therefore, we speculated that this property would be inherited by our […]s because the ligand-binding pockets were unchanged during the […] creation process. Twenty proteinogenic amino acids were used to test the ligand specificity of […]s. […] We also investigated the dependence of […]s on Mg^2+ and ATP (Supplementary Fig. 4). […] This phenomenon corroborates with the distinct conformational changes observed in Hinge A of Nt4CL2 (Mg^2++ATP) (PDB ID: 5BSM) and Nt4CL2 (Coumaroyl-AMP) (PDB ID: 5BST) reported in the literature (Supplementary Fig. 4k), where the direction of motion in hinge A differs. […] During the determination of quantum yield, we observed that the absolute quantum yield of the […] variants ranged from 0.3 to 0.6 upon addition of the respective substrates, which show no significant difference with that reported in literature. The specific values are provided in Supplementary Table 2.
as §2

Series [3] can be described thus: Dose–response curve of purified […] with glutamic acid. Further details: key: normalized ΔF/F0 (fluorescence change relative to baseline F0). In kind it is biochemical. The protocol: Fig. 3 Dose–response curves and fluorescence spectrums of […]s. a, c, e, g, i, k Dose–response curve of purified […]s with increasing concentrations of ligand in 100 mM Tris-HCl buffer (pH=7.5). The normalized ΔF/F0 value increased after ligand binding. All data shown are mean ± S.D. (n = 3 biologically independent samples). b, d, f, h, j, l The fluorescence spectra of […]s changed as the ligand concentration increased. All data shown are mean ± S.D. (n = 3 biologically independent samples). Source data are provided as a Source data file.
as §2

Series [4] can be described thus: Fluorescence spectra / excitation wavelength scan of […]s. In kind it is physicochemical. Particulars: Wavelength 300 nm. The protocol:
Fig. 3 Dose–response curves and fluorescence spectrums of […]s. a, c, e, g, i, k Dose–response curve of purified […]s with increasing concentrations of ligand in 100 mM Tris-HCl buffer (pH=7.5). […] All data shown are mean ± S.D. (n = 3 biologically independent samples). Source data are provided as a Source data file.
as §2

A short description of series [5]: Dose–response curve of purified […]s with tyrosine. It is filed as biochemical. The protocol: as §1, §2

Molecules are shown by their SMILES.

The text below walks through data of publication PMC10590383, “Repurposing conformational changes in ANL superfamily enzymes to rapidly generate biosensors for organic and amino acids” (Nature Communications, 2023).

As to `N[C@@H](CC(=O)O)c1ccccc1` [S-β-Phe], the “AVE, dose-response Fig. 4 b” value is listed as -0.0002792 in series [1] (substrate S-β-Phe 0.0001 μM); -0.0008239 in series [1] (substrate S-β-Phe 0.001 μM); -0.003663 in series [1] (substrate S-β-Phe 0.01 μM); -0.01739 in series [1] (substrate S-β-Phe 0.1 μM); 0.02113 in series [1] (substrate S-β-Phe 1 μM); 0.3498 in series [1] (substrate S-β-Phe 10 μM). Moreover, the “AVE, dose-response Fig. 4 b” value is listed as 0.6956 in series [1] (substrate S-β-Phe 50 μM); 0.8621 in series [1] (substrate S-β-Phe 100 μM); 0.9305 in series [1] (substrate S-β-Phe 500 μM); 0.8832 in series [1] (substrate S-β-Phe 1000 μM); 0.7695 in series [1] (substrate S-β-Phe 5000 μM); 0.7514 in series [1] (substrate S-β-Phe 10000 μM). For the same molecule, the “AVE, dose-response Fig. 4 f” value in series [1] (substrate S-β-Phe 0.0001 μM) was -0.0001186; in series [1] (substrate S-β-Phe 0.001 μM) it was -0.005617; in series [1] (substrate S-β-Phe 0.01 μM), 0.008482; in series [1] (substrate S-β-Phe 0.1 μM), 0.09012; in series [1] (substrate S-β-Phe 1 μM), 0.4944; in series [1] (substrate S-β-Phe 10 μM), 1.228. For the same molecule, the “AVE, dose-response Fig. 4 f” value in series [1] (substrate S-β-Phe 50 μM) is on record as 1.751; in series [1] (substrate S-β-Phe 100 μM), 1.939; in series [1] (substrate S-β-Phe 500 μM), 2.2005; in series [1] (substrate S-β-Phe 1000 μM), 2.208; in series [1] (substrate S-β-Phe 5000 μM), 2.26; in series [1] (substrate S-β-Phe 10000 μM), 2.258. Besides, the “fluorescence response of GECFINDER to each substrate, AVE of 3 repeats” value (“fluorescence response of GECFINDER” below) in series [2] came out at 2.126.
`N[C@@H](CCC(=O)O)C(=O)O` [Glu]: the “Dose-response, AVE of Repeat 1-3 (Fig. 3 e)” value in series [3] (Glu 0.1 μM) was 0; in series [3] (Glu 1 μM), 0.02632; in series [3] (Glu 2 μM), 0.0378; in series [3] (Glu 5 μM), 0.1147; in series [3] (Glu 10 μM), 0.1961; in series [3] (Glu 20 μM) it was 0.322. Further, the “Dose-response, AVE of Repeat 1-3 (Fig. 3 e)” value in series [3] (Glu 50 μM) is recorded as 0.5379; in series [3] (Glu 100 μM) it was 0.6984; in series [3] (Glu 200 μM) it was 0.8758; in series [3] (Glu 500 μM) it was 1.002; in series [3] (Glu 750 μM), 0.9874; in series [3] (Glu 1000 μM) it was 0.9487. In addition, in series [2], the “fluorescence response of GECFINDER” value was -0.007518. For the same molecule, the “Wavelength scan, AVE of Repeat 1-3 (Fig. 3 f)” value amounted to 86.3333 in series [4] (0.1 μM Glu), 106 in series [4] (5 μM Glu) and 120.667 in series [4] (500 μM Glu).
`N[C@@H](Cc1ccc(O)cc1)C(=O)O` [Tyr]: the “AVE, dose-response Fig. 4 b” value in series [5] (substrate Tyr 0.5 μM) was found to be 7.517e-17; in series [5] (substrate Tyr 1 μM) it was 0.02259; in series [5] (substrate Tyr 5 μM), 0.05606; in series [5] (substrate Tyr 10 μM), 0.0659; in series [5] (substrate Tyr 20 μM) it was 0.09543; in series [5] (substrate Tyr 50 μM), 0.2237. For the same molecule, the “AVE, dose-response Fig. 4 b” value in series [5] (substrate Tyr 100 μM) is given as 0.3812; in series [5] (substrate Tyr 200 μM), 0.5926; in series [5] (substrate Tyr 250 μM), 0.6977; in series [5] (substrate Tyr 500 μM), 1.046; in series [5] (substrate Tyr 750 μM), 1.209; in series [5] (substrate Tyr 1000 μM), 1.242. Besides, the “AVE, dose-response Fig. 4 e” value is given as 0 in series [5] (substrate Tyr 0.1 μM); 0.01578 in series [5] (substrate Tyr 0.2 μM); 0.04154 in series [5] (substrate Tyr 1 μM); 0.05025 in series [5] (substrate Tyr 2 μM); 0.1198 in series [5] (substrate Tyr 10 μM); 0.1707 in series [5] (substrate Tyr 20 μM). Besides, the “AVE, dose-response Fig. 4 e” value in series [5] (substrate Tyr 100 μM) came out at 0.4124; in series [5] (substrate Tyr 200 μM), 0.5306; in series [5] (substrate Tyr 500 μM), 0.6788; in series [5] (substrate Tyr 1000 μM) it was 0.7749; in series [5] (substrate Tyr 1500 μM) it was 0.7754; in series [5] (substrate Tyr 2000 μM) it was 0.7447. The “AVE of Repeat 1-3, sensor signal with ligand (Supplementary Fig. 7 c)” value in series [2] (1 mM ligand, Control AVE 12117.3) was 11224.3. The “fluorescence response of GECFINDER” value in series [2] is -0.01776.
